Consider eleven compounds from patent publication US12013390B2, “EBIV nucleic acid composition and application thereof” (Wuhan Institute of Virology, Chinese Academy of Sciences, priority 2022, dated 2024).

In the first assay the test system is recombinant EBIV carrying green fluorescent protein. The assay can be described thus: Antiviral drug screening with green fluorescent recombinant EBIV in BHK-21 cells, fluorescence per well by high content screening. Type of assay: cell-based, Ebinur Lake virus (EBIV). Particulars: Ebinur lake virus, BHK-21, 36 h, read-out: EC50 (half-maximal effect concentration). The procedure:
Further, the recombinant EBIV disclosed in the examples of the present application can also be used for the screening of antiviral drugs, for example for the screening of antiviral compounds. The specific steps were as follows.
(1) A 96-well plate for BHK-21 cells was prepared. The cells were planked at 10^4 cells/well. The plate was cultured in a cell incubator with a temperature of 37° C. and a CO2 concentration of 5%. The drug screening test was conducted when the cells grew to 40-50%. The drug to be tested was dissolved in dimethyl sulfoxide. Then the drug was diluted to 100 μM with DMEM medium containing 2% FBS. After that, the drug was subjected to serial 2-fold dilution to obtain the dilution gradient with the concentration of 100 μM, 50 μM, 25 μM, 12.5 μM, 6.25 μM, 3.125 μM, and 1.5625 μM, respectively (the concentration of DMSO in the diluted drug shall be <0.1%).
(2) The original culture medium was removed from the 96-well plate. The virus was inoculated into the 96-well plate at an MOI of 0.01 and a volume of 100 μL/well. At the same time, the diluted drugs to be tested were respectively added into the same 96-well plate at 100 μL/well and mixed well with the virus solution. The plate was incubated in a cell incubator with a temperature of 37° C. and a CO2 concentration of 5% for 36 hours before detection.
(3) The 96-well plate was photographed and data was analyzed using a high content screening (HCS) system to determine the amount of fluorescence per well and calculate the Z-factor for each compound:
[formula] where the four parameters σs, σc, μs, and μc represent the standard deviation and mean of the sample to be tested (s) and the negative (c) control, respectively. The stability and sensitivity of the screening system were then assessed using the Z′-factor:
[formula] where the four parameters σp, σn, μp, and μn represent the standard deviation and mean of the positive sample (p) and the negative (n) control, respectively.
(4) Cell viability per well (and the percentage of cells remaining per well) was observed under a microscope and the half-maximal effect concentration (EC50) of the drug was calculated using GraphPad Prism 9 software and an EC50 graph was plotted.
As to `NC(=O)c1ncn([C@@H]2O[C@H](CO)[C@@H](O)[C@H]2O)n1` [ribavirin, reference compound], the EC50 came to 21.9 µM.

Staying with this assay, now noted: even at 50 μM; BHK-21 cells, MOI 0.01, 36 hours.
`NC(=O)c1nc(F)c[nH]c1=O` [favipiravir, reference compound]: the “inhibitory effect on the virus” value was “no inhibitory effect”.

Staying with this assay, now noted: high-content screening; compared with Z'-factor 0.46 of the system (25 μM ribavirin positive control).
Turning to `CC(C)=CCC(OC(=O)C=C(C)C)C1=CC(=O)c2c(O)ccc(O)c2C1=O` (stereo not drawn) [Beta, beta-dimethyl acryl shikonin], the Z-factor is 0.53.

`C[C@@]12C(=O)OC(=O)[C@]1(C)[C@H]1CC[C@@H]2O1` [Cantharidin]: the Z-factor is 0.50.

Take `C[C@H](CCC(=O)O)[C@H]1CC[C@H]2[C@@H]3[C@H](O)C[C@@H]4C[C@H](O)CC[C@]4(C)[C@H]3CC[C@]12C` [Chenodeoxycholic acid, reference compound]: the Z-factor is 0.59.

With `COc1ccc(-c2cc(=O)c3c(O)cc(O[C@@H]4O[C@H](CO[C@@H]5O[C@@H](C)[C@H](O)[C@@H](O)[C@H]5O)[C@@H](O)[C@H](O)[C@H]4O)cc3o2)cc1O` [Diosmin, reference compound], the Z-factor came to 0.58.

Take `Oc1cc(O)c2c(c1)O[C@H](c1cc(O)c(O)c(O)c1)[C@H](O)C2` [Epigallocatechol]: the Z-factor came to 0.51.

For `CC(C)=CCc1c(O)ccc(C(=O)/C=C/c2ccc(O)cc2)c1O` [Isobavachalcone], the Z-factor is 0.58.

As for `CC(C)=CCc1cc2c(cc1O)oc(=O)c1c3ccc(O)cc3oc21` [Psoralidin], the Z-factor was found to be 0.46.

Regarding `C=C[C@H]1[C@H](O[C@@H]2O[C@H](CO)[C@@H](O)[C@H](O)[C@H]2O)OC=C(C(=O)OC)[C@H]1CC(=O)O` [Secoxyloganin], the Z-factor is 0.56.

Clinodiside Aogenin A: the Z-factor was determined as 0.54.
